Article PMC8770593 (Nature Communications, 2022)
Numbering of substitutions follows the chain as printed. “And” between values parts separate entries of the source, which are not always exact repeats. Equal values may be shown once. Read-outs that look alike come from different tables or passages of the source.

Assays:
wild-type α1BAR = biological target: T1, wild-type α1BAR (Homo sapiens, UniProt P35368); test: HTRF ligand-binding assay on whole transfected HEK293T/17 cells (QAPB saturation; competition with QAPB tracer)
T1 sequence (P35368 35-520 limits assumed): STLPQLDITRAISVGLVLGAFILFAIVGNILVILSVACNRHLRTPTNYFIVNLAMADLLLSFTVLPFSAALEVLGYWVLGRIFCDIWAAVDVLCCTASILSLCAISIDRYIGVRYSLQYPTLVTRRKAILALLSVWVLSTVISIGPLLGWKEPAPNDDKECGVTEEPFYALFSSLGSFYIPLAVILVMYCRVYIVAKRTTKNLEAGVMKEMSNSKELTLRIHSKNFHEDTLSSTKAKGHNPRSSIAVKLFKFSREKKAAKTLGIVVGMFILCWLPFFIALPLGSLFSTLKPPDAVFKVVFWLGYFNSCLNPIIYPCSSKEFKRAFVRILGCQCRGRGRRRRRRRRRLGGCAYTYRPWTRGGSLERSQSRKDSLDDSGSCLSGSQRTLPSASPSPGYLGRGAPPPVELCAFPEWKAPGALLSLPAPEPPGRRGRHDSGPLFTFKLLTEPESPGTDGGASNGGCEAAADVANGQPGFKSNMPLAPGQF

[1] = biological target: α1BARXTAL-ΔD12 (stabilized α1BAR without DARPin D12) (Homo sapiens, UniProt P35368, D191Y/DEL249-283/E194V/F334L/G183V/I116T/P349L/S150Y/S168C/S95C/T295M/V124M/V333L); test: HTRF competition ligand-binding assay on whole transfected HEK293T/17 cells (QAPB tracer); conditions: construct α1BARXTAL-∆D12, competition with Cyclazosin against QAPB tracer, one value per experiment date, read-out: Calculated pKi values (converted)
[2] = biological target: T2, α1BARXTAL (stabilized α1BAR with DARPin D12 fusion) (Homo sapiens, UniProt P35368, D191Y/E194V/F334L/G183V/I116T/P349L/S150Y/S168C/S95C/T295M/V124M/V333L); test: as above
T2 construct: deletion of N-terminal residues M1–N34 and intracellular loop three (ICL3) residues K249–L283, and fusion of DARPin D12[43],[68],[69] to residue C350^7.55; expressed in transfected cells; host or cells: HEK293T/17

wild-type α2CAR = biological target: T3, wild-type α2CAR (Homo sapiens, UniProt P18825); test: HTRF ligand-binding assay on whole transfected HEK293T/17 cells (QAPB saturation; competition with QAPB tracer); conditions: pKi (competition binding), competition with 50 nM QAPB tracer, whole cells, mean
T3 sequence (P18825 37-462 limits assumed): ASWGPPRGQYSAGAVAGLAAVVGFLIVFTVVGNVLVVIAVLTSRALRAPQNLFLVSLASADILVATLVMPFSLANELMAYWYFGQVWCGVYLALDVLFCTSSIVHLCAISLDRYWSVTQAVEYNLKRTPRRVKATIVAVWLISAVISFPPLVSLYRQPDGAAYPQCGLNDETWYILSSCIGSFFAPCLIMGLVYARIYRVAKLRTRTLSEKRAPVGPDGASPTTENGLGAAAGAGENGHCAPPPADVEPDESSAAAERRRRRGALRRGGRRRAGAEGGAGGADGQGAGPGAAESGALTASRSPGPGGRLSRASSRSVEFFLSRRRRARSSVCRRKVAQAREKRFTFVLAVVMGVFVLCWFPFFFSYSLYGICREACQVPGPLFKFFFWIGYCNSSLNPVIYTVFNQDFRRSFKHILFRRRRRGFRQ

[3] = system: α1BAR expressed in mammalian cells; conditions: radioligand binding; ref Proudman, R. G. W., et al., Pharmacol. Res. Perspect. 8 (2020); cited from earlier work
α1BAR-α2C(YLLY) chimera = biological target: T4, α1BAR-α2C(YLLY) chimera (Homo sapiens, UniProt P35368, A122L/L314Y/V197L/W121Y); test: HTRF ligand-binding assay on whole transfected HEK293T/17 cells (QAPB saturation; competition with QAPB tracer)
T4 sequence (P35368 35-520 W121Y/A122L/V197L/L314Y): T1 sequence (P35368 35-520 limits assumed) with W87Y, A88L, V163L, L280Y

[4] = parameters: method as in ref 49 (a number printed in a supplementary file, which may have a reference list of its own: not looked up in the article's list); conditions: computationally estimated; cited from earlier work
[5] = biological target: rat cerebral cortex tissue containing all three α2AR subtypes; parameters: method as in Giardinà, D. et al., J. Med. Chem. 39, 4602-4607 (1996); conditions: ref Giardinà, D. et al., J. Med. Chem. 39, 4602-4607 (1996); cited from earlier work
[6] = biological target: α1BAR-α2C(YLLY;N^2.64) chimera (Homo sapiens, UniProt P35368, A122L/L105N/L314Y/V197L/W121Y); test: HTRF ligand-binding assay on whole transfected HEK293T/17 cells (QAPB saturation; competition with QAPB tracer)
Chain of α1BAR-α2C(YLLY;N^2.64) chimera (P35368 35-520 L105N/W121Y/A122L/V197L/L314Y): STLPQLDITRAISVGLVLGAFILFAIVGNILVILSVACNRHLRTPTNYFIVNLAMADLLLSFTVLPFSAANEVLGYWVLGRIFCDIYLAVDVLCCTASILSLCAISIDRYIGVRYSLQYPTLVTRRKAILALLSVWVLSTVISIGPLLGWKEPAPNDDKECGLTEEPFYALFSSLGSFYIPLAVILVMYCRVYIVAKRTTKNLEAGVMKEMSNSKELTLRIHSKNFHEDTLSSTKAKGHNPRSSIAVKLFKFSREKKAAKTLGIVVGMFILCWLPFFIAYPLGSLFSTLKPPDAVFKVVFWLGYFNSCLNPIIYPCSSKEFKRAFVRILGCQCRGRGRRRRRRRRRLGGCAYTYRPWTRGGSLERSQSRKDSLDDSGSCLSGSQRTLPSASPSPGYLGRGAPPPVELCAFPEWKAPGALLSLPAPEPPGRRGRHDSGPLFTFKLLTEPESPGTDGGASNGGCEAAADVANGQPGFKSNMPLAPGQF

T2 sequence (P35368 with tags, fused parts or gaps with the stated changes): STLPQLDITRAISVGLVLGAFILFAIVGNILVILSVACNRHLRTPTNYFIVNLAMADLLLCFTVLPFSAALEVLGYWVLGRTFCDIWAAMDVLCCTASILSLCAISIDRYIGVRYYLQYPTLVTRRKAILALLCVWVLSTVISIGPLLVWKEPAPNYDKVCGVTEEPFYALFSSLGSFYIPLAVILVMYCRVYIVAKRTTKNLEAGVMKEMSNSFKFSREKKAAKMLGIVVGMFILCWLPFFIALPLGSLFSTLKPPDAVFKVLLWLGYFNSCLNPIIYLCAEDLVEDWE
Chain of α1BARXTAL-ΔD12 (stabilized α1BAR without DARPin D12) (P35368 with tags, fused parts or gaps with the stated changes): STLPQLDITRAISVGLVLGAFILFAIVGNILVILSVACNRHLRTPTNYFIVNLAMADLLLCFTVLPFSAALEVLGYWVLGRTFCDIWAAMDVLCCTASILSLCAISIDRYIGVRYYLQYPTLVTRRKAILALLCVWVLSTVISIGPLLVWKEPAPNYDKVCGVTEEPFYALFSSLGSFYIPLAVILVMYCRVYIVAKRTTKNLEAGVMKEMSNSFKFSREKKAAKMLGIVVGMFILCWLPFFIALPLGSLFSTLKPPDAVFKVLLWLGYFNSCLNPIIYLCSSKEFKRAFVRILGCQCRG

In the case of COc1cc2nc(N3CCN(C(=O)c4ccco4)[C@H]4CCCC[C@H]43)nc(N)c2cc1OC (relative stereo) [cyclazosin, [4-(4-amino-6,7-dimethoxyquinazolin-2-yl)-cis-octahydroquinoxalin-1-yl] furan-2-ylmethanone], the Ki (wild-type α1BAR; Ki, competition with 2 nM QAPB tracer, whole cells) is reported as 1.02 nM, the “higher affinity for wild-type α1BAR compared to α2CAR” value (wild-type α1BAR; ratio of affinities α1BAR vs α2CAR) is reported as ~330 fold and the Ki [1] is reported as 9.9 nM and 6.69 nM and 2.8 nM. The Ki ([2]; competition with 2 nM QAPB tracer, whole cells, read-out: Ki) was 6.17 nM, the Ki ([2]; construct α1BARXTAL, competition with Cyclazosin against QAPB tracer, HTRF, one value per experiment date, read-out: Calculated pKi values (converted)) was 11 nM and 3.94 nM and 5.44 nM and the Ki (wild-type α2CAR) was 339 nM. For the same compound, the “affinity as pK value (RLBA)” value [3] was 8.68, the Ki (α1BAR-α2C(YLLY) chimera; pKi (competition binding), competition with 50 nM QAPB tracer, whole cells, mean) was 3.72 nM and the “weaker affinity compared to wild-type α1BAR” value (α1BAR-α2C(YLLY) chimera; α1BAR-α2C(YLLY) vs wild-type α1BAR) was ~4 fold. The pKa [4] was 9, the “affinity as pK value (RLBA)” value [5] was 6.17 and the Ki [6] was 7.24 nM.
